Results reported in article PMC4030953, “Pyranose Dehydrogenase from Agaricus campestris and Agaricus xanthoderma: Characterization and Applications in Carbohydrate Conversions” (Biomolecules, 2013).

Experiments:
AxPDH = molecular target: T1, AxPDH (Agaricus xanthodermus, UniProt V5NC32); assay: spectrophotometric electron acceptor reduction; assay type: biochemical; conditions: apparent, 25 mM D-glucose, pH 8.5, 30 °C
T1 construct: gene pdh1
Text: spectrophotometric electron acceptor reduction on AxPDH

AcPDH [1] = molecular target: T2, AcPDH (Agaricus campestris, UniProt V5NDL4); assay: spectrophotometric electron acceptor reduction; assay type: biochemical; conditions: apparent, 25 mM D-glucose, pH 8.5, 30 °C
T2 construct: gene pdh1
Text: spectrophotometric electron acceptor reduction on AcPDH

AcPDH [2] = molecular target: T2, AcPDH; assay: in-gel flavin fluorescence after SDS-PAGE; assay type: binding; conditions: covalent; UV 302 nm

T2 sequence (V5NDL4 22-595): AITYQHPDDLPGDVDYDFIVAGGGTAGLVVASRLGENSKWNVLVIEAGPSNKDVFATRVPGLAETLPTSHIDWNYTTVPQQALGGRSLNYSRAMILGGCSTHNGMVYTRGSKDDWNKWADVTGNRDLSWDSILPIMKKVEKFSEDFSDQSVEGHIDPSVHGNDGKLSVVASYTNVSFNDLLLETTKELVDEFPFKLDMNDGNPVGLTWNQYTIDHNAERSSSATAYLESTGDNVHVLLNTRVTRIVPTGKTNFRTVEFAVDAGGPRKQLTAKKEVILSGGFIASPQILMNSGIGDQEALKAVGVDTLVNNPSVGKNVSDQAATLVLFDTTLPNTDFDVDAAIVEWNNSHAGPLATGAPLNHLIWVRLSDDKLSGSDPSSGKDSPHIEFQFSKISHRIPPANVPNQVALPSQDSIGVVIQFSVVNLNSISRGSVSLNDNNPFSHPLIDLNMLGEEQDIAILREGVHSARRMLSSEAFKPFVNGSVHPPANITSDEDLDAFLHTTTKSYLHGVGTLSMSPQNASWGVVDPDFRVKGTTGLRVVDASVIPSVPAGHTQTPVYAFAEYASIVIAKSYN
T1 sequence (V5NC32 26-600): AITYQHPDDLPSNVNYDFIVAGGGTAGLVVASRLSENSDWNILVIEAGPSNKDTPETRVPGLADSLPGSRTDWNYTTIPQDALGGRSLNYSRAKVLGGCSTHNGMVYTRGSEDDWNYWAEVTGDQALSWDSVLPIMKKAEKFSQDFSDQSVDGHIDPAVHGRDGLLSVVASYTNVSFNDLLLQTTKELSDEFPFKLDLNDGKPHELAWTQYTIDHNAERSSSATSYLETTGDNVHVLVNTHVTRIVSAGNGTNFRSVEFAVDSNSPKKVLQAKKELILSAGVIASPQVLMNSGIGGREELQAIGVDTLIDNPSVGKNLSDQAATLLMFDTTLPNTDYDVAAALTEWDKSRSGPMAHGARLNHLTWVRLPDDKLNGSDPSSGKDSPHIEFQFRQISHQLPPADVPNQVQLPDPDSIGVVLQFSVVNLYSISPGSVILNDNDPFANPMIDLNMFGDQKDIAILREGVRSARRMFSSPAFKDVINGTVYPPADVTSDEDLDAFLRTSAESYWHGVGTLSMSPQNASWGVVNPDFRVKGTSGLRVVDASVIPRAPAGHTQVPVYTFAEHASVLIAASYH

| Structure (SMILES) | Km (AxPDH) | Km (AcPDH [1]) | in-gel flavin fluorescence after SDS-PAGE (AcPDH [2]) |
| --- | --- | --- | --- |
| F[P-](F)(F)(F)(F)F.[Fe+3].c1cc[cH-]c1.c1cc[cH-]c1 [Fc^+PF6] | 30 µM | 1.19 ± 0.17 mM | – |
| Cc1cc2nc3c(=O)[nH]c(=O)nc-3n(C[C@H](O)[C@H](O)[C@H](O)COP(=O)(O)OP(=O)(O)OC[C@H]3O[C@@H](n4cnc5c(N)ncnc54)[C@H](O)[C@@H]3O)c2cc1C [FAD] | – | – | AcPDH and AxPDH showed a bright band under UV-light |
